Test results: publication PMC4919375, “Improved in vivo antitumor effect of a daunorubicin - GnRH-III bioconjugate modified by apoptosis inducing agent butyric acid on colorectal carcinoma bearing mice” (Investigational New Drugs, 2016)

Key:
NSG healthy mice = assay: Chronic toxicity of daunorubicin on NSG healthy mice; format: in vivo, mouse
Description: NSG adult male mice, weighing 26–34 g, were used. Daunorubicin was dissolved in distilled water at a concentration that allowed the dose to be given in a volume of 0.1 mL/10 g body weight. In this experiment, each group consisted of 3 mice, which were treated by intraperitoneal (i.p.) administration on days 1, 4, 8, 12 and 16. The toxicity was assessed on the basis of lifespan and body weight and the survival time was followed for 20 days.

[1] = test system: HT-29 orthotopic primary human colon carcinoma; assay: Tumor growth inhibition, orthotopic HT-29 human colon carcinoma in NSG mice; format: in vivo, mouse; details: orthotopic HT-29 in NSG mice, Dau 1 mg/kg i.v. weekly x7, 7 mice/group; for Tumor growth inhibition compared to the control group: tumor weight on day 50, bioconjugates 15 mg Dau content/kg i.v. x5 then 7.5 mg Dau content/kg i.p. x8, twice a week; for Tumor weight on day 50 after tumor transplantation: relative to control, bioconjugates 15 mg Dau content/kg i.v. x5 then 7.5 mg/kg i.p. x8, mean
Text: Female NSG mice, weighing 24–28 g, were used in this study. The xenografts were established by subcutaneous injection of ca. 10^6 HT-29 (GnRH receptor positive) human colon carcinoma cells, which were from ATCC and cultured according to their standards. The mice with palpable tumors were killed by cervical-dislocation, disinfected with iodine, and the subcutaneous tumor was dissected out aseptically. Tumor pieces of 2–3 mm^3 were transplanted under aseptic conditions, orthotopically, into narcotized NSG mice.
For direct implantation, mice were anesthetized (narcotic mixture: tiletamine, zolazepam, xylazine, butorphanol) and the abdomen was sterilized with iodine and alcohol swabs. A small midline incision (0.5 cm) was made and the colorectal part of the intestine was exteriorized. Serosa of the site where the tumor pieces were to be implanted was removed. A piece of 2 mm^3 HT-29 human colon tumor was implanted on the top of the animal intestine; an 8/0 surgical (polypropylene) suture was used to suture it on the wall of the intestine. The intestine was returned to the abdominal cavity and the abdominal wall was closed with 4/0 surgical (polyglycolic acid) sutures. The wound was sterilized with iodine and alcohol swab again and the animals were kept in a sterile environment. For pain release and rehydration, mice were treated s.c. with 100 mg/kg algopyrine in Ringer solution containing 5 % glucose. On the next day, no signs of pain and stress of mice were observed.
(§1) Based on the results of the chronic toxicity study, we used only 1 mg (1.773 μmol)/kg free Dau, weekly, in the Dau treated group. Thirteen treatments were applied from the day 5 after tumor transplantation until the day 50 in the groups treated with the bioconjugates (every Monday and Thursday). The treatments were performed by i.v. (intravenous) or i.p. administration; the compounds were dissolved in distilled water (0.1 mL/10 g body weight).
In this experiment, 7 mice/group were used for the treatment with the bioconjugates (GnRH-III[^4Lys(Ac),^8Lys(Dau = Aoa)] and GnRH-III[^4Lys(Bu),^8Lys(Dau = Aoa)]) as well as in the control group.
The bioconjugates were administered at different doses during the treatment period. In the first five treatments, they were i.v. administered, at a dose of 28.435 μmol/kg body weight (15 mg Dau content in the bioconjugate/kg). From the 6th to the 13th treatment, they were i.p. administered at a dose of 14.217 μmol/kg body weight (7.5 mg Dau content in the bioconjugate/kg). The first five doses represented the initial round of treatments, which was followed by the maintenance therapy. […]
After that, the tumors were removed and the tumor weight was determined in all cases. […]

liver = assay: Macroscopic liver toxicity (liver weight); format: in vivo, mouse; details: Dau 1 mg/kg i.v. weekly x7; for Liver weight on day 50 after tumor transplantation: relative to control, HT-29 bearing NSG mice, bioconjugates 15 then 7.5 mg Dau content/kg twice a week, mean
Description: as §1
(§2) The bioconjugates were administered at different doses during the treatment period. In the first five treatments, they were i.v. administered, at a dose of 28.435 μmol/kg body weight (15 mg Dau content in the bioconjugate/kg). From the 6th to the 13th treatment, they were i.p. administered at a dose of 14.217 μmol/kg body weight (7.5 mg Dau content in the bioconjugate/kg). The first five doses represented the initial round of treatments, which was followed by the maintenance therapy. In the maintenance treatments, 5 % glucose solution instead of distilled water was used, in order to minimize the harmful effects of tfa salts that were present in the lyophilized bioconjugates.
(§3) The mice from all groups were sacrificed by deadly overslept cocktail (0.3 mL/mouse concentrated nembutal (pentobarbitone) solution), on day 50 after tumor transplantation.

heart = assay: Liver- and cardiotoxicity, histological examination and side effects; format: in vivo, mouse; details: at the applied doses; liver weight, hematoxylin and eosin histology of heart, light microscopy
Text: The removed and fixed tissue samples were dehydrated in a graded series of ethanol, infiltrated with xylene and embedded into paraffin. Histological sections were stained with Harris hematoxylin and eosin (10:1, v/v, 1 % solutions) in acidified 70 % ethanol and mounted. The histological samples were examined under a light microscope (Olympus CH30, Olympus Optical, Japan).

[2] = test system: HT-29 orthotopic primary human colon carcinoma; assay: Macroscopic metastases on different organs; format: in vivo, mouse; details: orthotopic HT-29 in NSG mice, day 50; 7 animals in each group
Description: as §1, §2, §3

[3] = test system: HT-29 orthotopic primary human colon carcinoma; assay: Proliferative index in orthotopic HT-29 tumor tissues (BrdU); format: in vivo, mouse; details: orthotopic HT-29 in NSG mice, BrdU positive cells; relative to control; mean
Description: (§4) Before ending the experiment (30 min prior to sacrificing the mice), the tumor bearing animals were injected i.p. with 5-bromo-2 V-deoxyuridine (BrdU, 200 mg/kg; Sigma-Aldrich Kft, Budapest, Hungary). After 6 h, 5–7 μm thick tissue sections were excised from the newly frozen tumors and used for the detection of BrdU positive cells using an anti-BrdU monoclonal antibody (Becton Dickinson Hungary Kft., Budapest, Hungary), according to the manufacturer’s protocol. Positive cells were visualized with TRITC-conjugated anti-mouse IgG (1:100, Sigma). Endothelial cells were distinguished from tumor cells by treating the samples with rat anti-mouse CD31 antibody and labelled with biotinylated anti-rat IgG and streptavidin-FITC (Vector Laboratories, Burlingame, CA). The nuclei were stained with the Hoechst 33,342 dye (Molecular Probes, Eugene, OR). The number of labelled HT-29 tumor cells and the quantity of CD31-positive samples were determined in two different tumors by microscopic analysis of 6 independent regions. The vascularization extent of primary tumors was determined by microscopic analysis of two different living tumors, where four independent areas of living cells were counted and the percentage of separated endothelial cells covering a 10× magnification field of vision was calculated.

[4] = test system: HT-29 orthotopic primary human colon carcinoma; assay: Vascularization in orthotopic HT-29 tumor tissues (CD31); format: in vivo, mouse; details: orthotopic HT-29 in NSG mice, CD31-positive endothelial cells; control 100 %; mean
Description: as §4

GnRH receptor = details: butyrated compared with acetylated bioconjugate; cited from earlier work
Text: (§5) In our research, lamprey GnRH-III (Glp-His-Trp-Ser-His-Asp-Trp-Lys-Pro-Gly-NH2, where Glp is pyroglutamic acid) has been employed as a key molecule for drug targeting. […] Thus, hormonal side effects in case of targeted tumor therapy using GnRH-III as a homing device are expected to be insignificant, this feature being important in the treatment of hormone independent tumors like colorectal cancer. Considering that lysine in position 8 of GnRH-III can be us ...

[5] = test system: HT-29 human colon cancer cells; details: cited from earlier work
Text: as §5

[6] = butyrated version compared with acetylated; previous in vitro studies; cited from earlier work
Text: In our research, GnRH-III peptide was mainly employed as a targeting moiety, due to its low endocrine effect in mammals and significant antiproliferative effect on different types of cancer cells. […] However, the efficacy of the bioconjugates was highly dependent on the tumor type and whether this was subcutaneously or orthotopically developed in mice. Orthotopically developed tumors represent the ...

Molecule | Tumor growth inhibition compared to the control group [1] | Tumor weight on day 50 after tumor transplantation [1] | Liver weight on day 50 after tumor transplantation (liver) | Metastasis on diaphragm, animals affected/animals in group [2] | Metastasis on diaphragm, percent of animals [2] | Metastasis on liver, animals affected/animals in group [2] | Metastasis on liver, percent of animals [2] | Metastasis on lung, animals affected/animals in group [2] | Metastasis on lung, percent of animals [2] | Metastasis on lymph node, animals affected/animals in group [2] | Metastasis on pancreas, animals affected/animals in group [2] | Metastasis on pancreas, percent of animals [2] | Metastasis on spleen, animals affected/animals in group [2] | Metastasis on spleen, percent of animals [2] | Proliferation index (%) [3] | further results
COc1cccc2c1C(=O)c1c(O)c3c(c(O)c1C2=O)C[C@@](O)(C(C)=O)C[C@@H]3O[C@H]1C[C@H](N)[C@H](O)[C@H](C)O1 [Daunorubicin] | about 30% | 70.3% | 89.1% | 3/7 | 42.9% | 7/7 | 100% | 7/7 | 100% | 4/7 | 0/7 | 0% | 0/7 | 0% | 98.6% | Day on which the first animal died (NSG healthy mice; 1 mg/kg i.p. on days 1, 4, 8, 12 and 16, NSG healthy male mice, 3 mice/group, experiment stopped on day 20): 20 days; Mice died (NSG healthy mice; 2 mg/kg i.p. on days 1, 4, 8, 12 and 16, died on day 13 after the fourth treatment, NSG healthy male mice, 3 mice/group): 2 of 3; Body weight change (NSG healthy mice; 1 or 2 mg/kg i.p. on days 1, 4, 8, 12 and 16, both doses, NSG healthy male mice): significant loss of weight; Body weight of the animals at the end (NSG healthy mice; decreased from ~30 g during 20 days, i.p. on days 1, 4, 8, 12 and 16, NSG healthy male mice): ~ 20 g; Maximum tolerated dose (NSG healthy mice; immunodeficient tumor bearing mice): 1–2 mg/kg/week; Decrease of average liver weight (liver; vs control, day 50, not significant): about 11%; Liver- or cardiotoxicity (heart): neither the bioconjugates nor the free daunorubicin showed any liver- or cardiotoxicity; Vascularization (number of blood vessels), to the control [4]: 112%
GnRH-III[^4Lys(Bu),^8Lys(Dau = Aoa)] | ~ 40% | 60.6% | 105.0% | 3/7 | 42.9% | 7/7 | 100% | 7/7 | 100% | 3/7 | 0/7 | 0% | 1/7 | 14.3% | 84.5% | Metastasis on lymph node, percent of animals [2]: 42.9%; Binding to the GnRH receptor (affinity) (GnRH receptor): higher affinity; IC50 [5]: 2200 ± 600 nM; Cellular uptake [6]: higher receptor binding affinity and cellular uptake
